Measurements published in patent US10265329B2, “Altering steroid metabolism for treatment of steroid-dependent disease” (THE CLEVELAND CLINIC FOUNDATION, priority 2015, dated 2019).

Key:
VCaP xenografts = assay: VCaP xenograft progression in orchiectomized mice with DHEA pellet; assay type: in vivo; conditions: 0.5 mmol/kg/d i.p.; compared to the Abi acetate group, P=0.011
Method: Male NSG mice, 6 to 8 weeks of age were obtained from the Cleveland Clinic Biological Resources Unit facility. All mouse studies were conducted under a protocol approved by the Cleveland Clinic Institutional Animal Care and Use Committee. Sample size was determined based on our prior studies of steroidogenesis inhibition in xenograft models of CRPC. Chang et al., Proc Natl Acad Sci USA., 108:13728-13733 (2011). Criteria for progression were determined based on similar criteria that are utilized for clinical progression. Mice were surgically orchiectomized and implanted with a 5 mg 90-day sustained-release DHEA pellet (Innovative Research of America) to mimic CRPC in the context of human adrenal physiology. Two days later, 10^7 VCaP or C4-2 cells were injected subcutaneously with matrigel. Once tumors reached 300 mm^3 (length×width×height×0.52), mice were arbitrarily (but not strictly randomized) assigned to vehicle (n=9 or 10 mice for VCaP and C4-2 respectively), Abi acetate (n=10 mice for both cell lines), D4A (n=10 mice for both cell lines) or enzalutamide (n=11 for C4-2) treatment groups. […] Tumor volume was measured daily, and time to increase in tumor volume by 20% was determined. […] The significance of the difference between treatment groups was assessed by Kaplan-Meier survival analysis using a log-rank test in SigmaStat 3.5.

[1] = Abi metabolites in sera of patients with CRPC treated with Abi acetate; assay type: in vivo, human; conditions: patients undergoing treatment with Abi acetate
Method: Patient serum collection and drug extraction. Twelve patients with CRPC undergoing treatment with Abi acetate were consented under an Institutional Review Board—approved protocol (Case 7813). Blood was collected using Vacutainer Plus serum blood collection tubes (#BD367814, Becton Dickenson, Franklin Lakes, N.J.). Blood was collected between 2 and 14 hours after the 1000 mg daily dose of Abi acetate was administered. Blood was allowed to clot and tubes were centrifuged at 2500 RPM for 10 minutes. Serum aliquots were frozen at −80° C. until processing. Drug metabolites and internal standard (d4-cortisol, CDN isotopes Pointe-Claire, Quebec Canada) were extracted from 200 μL of patient serum with methyl tert-butyl ether (Sigma Aldrich, St. Louis, Mo.), evaporated under a stream of nitrogen gas and reconstituted in methanol prior to mass spectrometry analysis.
Patient serum analysis. Blood was obtained from prostate cancer patients with consent under a protocol approved by the Cleveland Clinic Institutional Review Board. Samples were analyzed on a ultra high-performance liquid chromatography station (Shimadzu, Kyoto, Japan) with a DGU-20A3R degasser, 2 LC-30AD pumps, a SIL-30AC autosampler, a CTO-10A column oven and a CBM-20A system controller in tandem with a QTRAP 5500 mass spectrometer (AB Sciex, Framingham, Mass.). […]

## C[C@]12CCC(=O)C=C1CC[C@@H]1[C@@H]2CC[C@]2(C)C(c3cccnc3)=CC[C@@H]12 [Compound D4A, 17-(3-Pyridyl)androsta-4,16-dien-3-one]
VCaP xenografts
  time to tumor progression (>20% increase in tumor volume): significantly delayed
[1]
  detection in sera of patients with CRPC: detectable
